This is an account of results in patent US8883782B2, “Spiro-tetracyclic ring compounds as beta-secretase modulators and methods of use” (Amgen Inc., priority 2010, dated 2014).

Read-outs that look alike come from different tables or passages of the source.

In assay [1] the target is Beta Secretase enzyme (BACE) (Homo sapiens, UniProt P56817). The experiment in a line: In vitro enzymatic BACE FRET (fluorescence resonance energy transfer) assay. The format is biochemical. As to conditions: average IC50, enzyme assay; read-out: BACE 1 FRET assay. The essentials: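 Cleavage of a 50 nM fluorophore/quencher peptide FRET substrate by BACE for 1 h in 0.05 M acetate pH 4.2, 10% DMSO, 100 uM genapol. Reaction stopped with Tris to neutral pH before fluorescence reading.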

In assay [2] the test system is Aβ40 in conditioned medium of cells stably expressing Amyloid Precursor Protein (APP). Nature of the assay: In vitro BACE cell-based assay (Aβ40 in conditioned medium, sandwich ELISA). As to conditions: read-out: HEK cell assay. The essentials:
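Step two: 10-point compound titration added, starting 100 μM or 10 μM, 0.1% DMSO. Step three: medium Aβ40 measured by ELISA, capture 3 h and detection 2 h at 4° C, TRF read.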

Setting [3] is: Homo sapiens, HEK293, average IC50.
Where [4] appears, read: Homo sapiens, HEK293, average IC50, HEK cells.

Chain of Beta Secretase enzyme (BACE) (P56817 46-501, species assumed): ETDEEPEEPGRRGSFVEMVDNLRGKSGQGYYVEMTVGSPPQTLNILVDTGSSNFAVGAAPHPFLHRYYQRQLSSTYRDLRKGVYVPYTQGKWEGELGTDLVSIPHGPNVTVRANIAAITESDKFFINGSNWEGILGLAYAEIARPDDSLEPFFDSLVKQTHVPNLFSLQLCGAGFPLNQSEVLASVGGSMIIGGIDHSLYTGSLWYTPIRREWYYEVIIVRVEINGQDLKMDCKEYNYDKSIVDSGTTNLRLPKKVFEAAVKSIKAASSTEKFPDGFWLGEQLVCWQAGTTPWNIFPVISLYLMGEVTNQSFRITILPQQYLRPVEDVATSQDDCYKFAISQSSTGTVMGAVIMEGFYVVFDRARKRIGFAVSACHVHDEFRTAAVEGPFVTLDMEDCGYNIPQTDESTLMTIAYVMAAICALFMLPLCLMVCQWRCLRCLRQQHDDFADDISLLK

With `NC1=N[C@@]2(CO1)c1cc(-c3ccc(F)nc3)ccc1Oc1c(F)cc(N3C[C@@H]4C[C@H]3CO4)cc12` [Example 302, (4S)-4′-fluoro-7′-(6-fluoro-3-pyridinyl)-2′-((1S,4S)-2-oxa-5-azabicyclo[2.2.1]hept-5-yl)spiro[1,3-oxazole-4,9′-xanthen]-2-amine], the results for the IC50 in assay [1] and in assay [2] (setting [3]) were 3.1 nM and 5.6 nM, respectively.

As for `NC1=N[C@@]2(CO1)c1cc(-c3cncc(F)c3)ccc1Oc1c(F)cc(C3=CCOC3)cc12` [Example 288, (4S)-2′-(2,5-dihydro-3-furanyl)-4′-fluoro-7′-(5-fluoro-3-pyridinyl)spiro[1,3-oxazole-4,9′-xanthen]-2-amine], the IC50 in assay [1] worked out at 0.3 nM; in assay [2] (setting [3]), 4.1 nM.

For the compound `NC1=N[C@@]2(CO1)c1cc(-c3cccnc3F)ccc1Oc1cc(OC(F)(F)F)c(-c3ccnc(F)c3)cc12` [Example 991, (4S)-7′-(2-fluoro-3-pyridinyl)-2′-(2-fluoro-4-pyridinyl)-3′-(trifluoromethoxy)spiro[1,3-oxazole-4,9′-xanthen]-2-amine], the IC50 was 193 nM in assay [1] and 1090 nM in assay [2] (setting [3]).

In the case of `NC1=N[C@]2(CO1)c1cc(Br)ccc1Oc1c(F)cc(Cl)nc12` [Example 489, (10R)-8-bromo-2-chloro-4-fluorospiro[chromeno[3,2-b]pyridine-10,4′-[1,3]oxazol]-2′-amine], the IC50 in assay [1] worked out at 8120 nM; in assay [2] (setting [4]) it was 10000 nM.

Turning to `CC(C)(C)C#Cc1cc2c(nc1F)Oc1ccc(-c3cccnc3F)cc1[C@@]21COC(N)=N1` [Example 685, (5S)-3-(3,3-dimethyl-1-butyn-1-yl)-2-fluoro-7-(2-fluoro-3-pyridinyl)spiro[chromeno[2,3-b]pyridine-5,4′-[1,3]oxazol]-2′-amine], the IC50 in assay [1] was 0.4 nM; in assay [2] (setting [4]), 11 nM.

With `NC1=N[C@@]2(CO1)c1cc(-c3cccnc3F)ccc1Oc1c2cc(N2CCC(F)(F)CC2)nc1F` [Example 698, (5S)-3-(4,4-difluoro-1-piperidinyl)-1-fluoro-7-(2-fluoro-3-pyridinyl)spiro[chromeno[2,3-c]pyridine-5,4′-[1,3]oxazol]-2′-amine], the IC50 in assay [1] came out at 0.3 nM; in assay [2] (setting [4]), 6 nM.

In the case of `CC#Cc1cncc(-c2ccc3c(c2)[C@@]2(COC(N)=N2)c2cc(OCC(C)(C)C#N)cc(F)c2O3)c1` [Example 948, 3-(((4S)-2-amino-4′-fluoro-7′-(5-(1-propyn-1-yl)-3-pyridinyl)spiro[1,3-oxazole-4,9′-xanthen]-2′-yl)oxy)-2,2-dimethylpropanenitrile], the IC50 came to 0.4 nM in assay [1] and 4 nM in assay [2] (setting [4]).

As for `COC(C)(C)COc1cnc2c(c1)[C@@]1(COC(N)=N1)c1cc(-c3cccc(F)c3F)ccc1O2` [Example 314, (5R)-7-(2,3-difluorophenyl)-3-(2-methoxy-2-methylpropoxy)spiro[chromeno[2,3-b]pyridine-5,4′-[1,3]oxazol]-2′-amine], the IC50 in assay [1] worked out at 1920 nM; in assay [2] (setting [3]), 3660 nM.

`COc1nc(F)cc2c1Oc1ccc(-c3cccnc3)cc1[C@]21COC(N)=N1` [Example 847, (5R)-3-fluoro-1-methoxy-7-(3-pyridinyl)spiro[chromeno[2,3-c]pyridine-5,4′-[1,3]oxazol]-2′-amine, (5S)-3-fluoro-1-methoxy-7-(3-pyridinyl)spiro[chromeno[2,3-c]pyridine-5,4′-[1,3]oxazol]-2′-amine]: the IC50 is 0.4 nM in assay [1] and 10 nM in assay [2].

For `CC1(C#Cc2cnc3c(c2)[C@]2(COC(N)=N2)c2cc(-c4cncc(F)c4)c(F)cc2O3)COC1` [Example 623, (5S)-8-fluoro-7-(5-fluoro-3-pyridinyl)-3-((3-methyl-3-oxetanyl)ethynyl)spiro[chromeno[2,3-b]pyridine-5,4-[1,3]oxazol]-2′-amine], the IC50 in assay [1] was found to be 0.9 nM; in assay [2] (setting [4]), 9 nM.

As for `NC1=N[C@@]2(CO1)c1cc(-c3cccnc3F)ccc1Oc1c(F)cc(N3CCC(F)(F)C3)cc12` [Example 271, (4S)-2′-(3,3-difluoro-1-pyrrolidinyl)-4′-fluoro-7′-(2-fluoro-3-pyridinyl)spiro[1,3-oxazole-4,9′-xanthen]-2-amine], the IC50 is 0.5 nM in assay [1] and 4.1 nM in assay [2] (setting [3]).

With `NC1=NC2(CO1)c1cc(-c3cccnc3F)ccc1Oc1nc(F)c(C3=CCOCC3)cc12` (stereo not shown) [Example 150, 3-(3,6-dihydro-2H-pyran-4-yl)-2-fluoro-7-(2-fluoro-3-pyridinyl)spiro[chromeno[2,3-b]pyridine-5,4′-[1,3]oxazol]-2′-amine], the IC50 amounted to 2.6 nM in assay [1] and 48.2 nM in assay [2] (setting [3]).

Regarding `CC1(COc2cc3c(cc2F)Oc2ccc(-c4cccc(C#N)c4)cc2[C@@]32COC(N)=N2)COC1` [Example 331, 3-((4S)-2-amino-6′-fluoro-7′-((3-methyl-3-oxetanyl)methoxy)spiro[1,3-oxazole-4,9′-xanthen]-2′-yl)benzonitrile], the IC50 was determined as 13.9 nM in assay [1] and 85.5 nM in assay [2] (setting [3]).

Consider `CC1(C#Cc2cc3c(cn2)Oc2ccc(-c4cccnc4F)cc2[C@@]32COC(N)=N2)COC1` [Example 405, (5S)-7-(2-fluoro-3-pyridinyl)-3-((3-methyl-3-oxetanyl)ethynyl)spiro[chromeno[2,3-c]pyridine-5,4′-[1,3]oxazol]-2′-amine], for which the IC50 in assay [1] was 1.4 nM; in assay [2] (setting [4]) it was 11.1 nM.

Take `NC1=N[C@@]2(CO1)c1cc(-c3cccnc3)ncc1Oc1c(F)cc(C3=CCOCC3)cc12` [Example 307, (5S)-7-(3,6-dihydro-2H-pyran-4-yl)-9-fluoro-3-(3-pyridinyl)spiro[chromeno[2,3-c]pyridine-5,4′-[1,3]oxazol]-2′-amine]: the IC50 came to 3.9 nM in assay [1] and 58.1 nM in assay [2] (setting [3]).

Take `NC1=N[C@@]2(CO1)c1cc(-c3cccnc3F)ccc1Oc1c(F)cc(N3CC4(CCCO4)C3)cc12` [Example 855, (4S)-4′-fluoro-7′-(2-fluoro-3-pyridinyl)-2′-(5-oxa-2-azaspiro[3.4]oct-2-yl)spiro[1,3-oxazole-4,9′-xanthen]-2-amine]: the IC50 in assay [1] came to 0.7 nM; in assay [2] (setting [4]), 2 nM.

`CC1(C#Cc2cc(F)c3c(c2)[C@]2(COC(N)=N2)c2cc(-c4ccc(F)nc4)ccc2O3)COC1` [Example 598]: the IC50 in assay [1] came out at 4.1 nM; in assay [2] (setting [4]), 32 nM.

On to `COc1ncc(-c2ccc3c(c2)[C@@]2(COC(N)=N2)c2cc(N4CC[C@@H](F)C4)ncc2O3)cn1` [Example 417, (5S)-3-((3R)-3-fluoro-1-pyrrolidinyl)-7-(2-methoxy-5-pyrimidinyl)spiro[chromeno[2,3-c]pyridine-5,4′-[1,3]oxazol]-2′-amine], for which the figures for the IC50 in assay [1] and in assay [2] (setting [4]) were 84.5 nM and 336 nM, respectively.

For `NC1=N[C@@]2(CO1)c1cc(-c3ccccc3)ccc1Oc1c(F)cc(-c3cccnn3)cc12` [Example 559, (4S)-4′-fluoro-7′-phenyl-2′-(3-pyridazinyl)spiro[1,3-oxazole-4,9′-xanthen]-2-amine], the IC50 came to 12.2 nM in assay [1] and 151 nM in assay [2] (setting [4]).

In the case of `CC1(C)C=C(c2cc3c(c(F)n2)Oc2ccc(-c4cccnc4F)cc2[C@]32CSC(N)=N2)CCO1` [Example 1035, (5R)-3-(6,6-dimethyl-3,6-dihydro-2H-pyran-4-yl)-1-fluoro-7-(2-fluoro-3-pyridinyl)spiro[chromeno[2,3-c]pyridine-5,4′-[1,3]thiazol]-2′-amine], the IC50 in assay [1] was 1.3 nM; in assay [2] (setting [3]), 14 nM.

`NC1=N[C@@]2(CO1)c1cc(-c3cncc(F)c3)ccc1Oc1c(F)cc([C@H]3CCCOC3)cc12` [Example 285, (4S)-4′-fluoro-7′-(5-fluoro-3-pyridinyl)-2′-((3R)-tetrahydro-2H-pyran-3-yl)spiro[1,3-oxazole-4,9′-xanthen]-2-amine]: the IC50 in assay [1] worked out at 2.4 nM; in assay [2] (setting [3]), 20.4 nM.

Regarding `CC(C)(O)C#Cc1cncc(-c2ccc3c(c2)[C@@]2(COC(N)=N2)c2cc(C4=CCCOC4)ncc2O3)c1` [Example 819, 4-(5-((5S)-2′-amino-3-(5,6-dihydro-2H-pyran-3-yl)spiro[chromeno[2,3-c]pyridine-5,4′-[1,3]oxazol]-7-yl)-3-pyridinyl)-2-methyl-3-butyn-2-ol], the IC50 in assay [1] turned out to be 5.2 nM; in assay [2] (setting [3]), 238 nM.

Consider `NC1=N[C@@]2(CO1)c1cc(-c3ccc(F)nc3)ccc1Oc1c(F)cc(C3=CCOCC3)cc12` [Example 260, (4S)-2′-(3,6-dihydro-2H-pyran-4-yl)-4′-fluoro-7′-(6-fluoro-3-pyridinyl)spiro[1,3-oxazole-4,9′-xanthen]-2-amine], for which the IC50 amounted to 1.9 nM in assay [1] and 10.9 nM in assay [2] (setting [3]).

Regarding `CC1(COc2cc(F)c3c(c2)[C@]2(COC(N)=N2)c2cc(-c4cncc(C#N)c4)ccc2O3)COC1` [Example 552, 5-((4S)-2-amino-5′-fluoro-7′-((3-methyl-3-oxetanyl)methoxy)spiro[1,3-oxazole-4,9′-xanthen]-2′-yl)-3-pyridinecarbonitrile], the IC50 in assay [1] came to 0.9 nM; in assay [2] (setting [4]), 3.1 nM.

Regarding `CC1(C#Cc2cncc(-c3ccc4c(c3)[C@@]3(COC(N)=N3)c3cc(C5=CCCOC5)ncc3O4)c2)COC1` [Example 813, (5S)-3-(5,6-dihydro-2H-pyran-3-yl)-7-(5-((3-methyl-3-oxetanyl)ethynyl)-3-pyridinyl)spiro[chromeno[2,3-c]pyridine-5,4′-[1,3]oxazol]-2′-amine], the IC50 amounted to 2.5 nM in assay [1] and 53 nM in assay [2] (setting [3]).

Turning to `CC1(COc2cc3c(cc2F)Oc2ccc(-c4cncc(C#N)c4)cc2[C@@]32COC(N)=N2)COC1` [Example 330, 5-((4S)-2-amino-6′-fluoro-7′-((3-methyl-3-oxetanyl)methoxy)spiro[1,3-oxazole-4,9′-xanthen]-2′-yl)-3-pyridinecarbonitrile], the IC50 in assay [1] came out at 8.8 nM; in assay [2] (setting [3]) it was 33.6 nM.
